Results taken from patent US20240067632A1, “WEE1 Degrading Compounds and Uses Thereof” (Bristol-Myers Squibb Company, priority 2022, published 2024).

Assays:
WEE1 = target: T1, WEE1 (Homo sapiens, UniProt P30291+Q96SW2); assay: WEE1-ePL degradation assay (LentiX-WEE1-ePL-GSPT1-ND cells, InCELL Hunter luminescence, 4 h); assay type: cell-based; details: 293T-LentiX WEE1-ePL cells; for 293T-LentiX WEE1-ePL Degradation 4 hr (Ymin): lower limit of the fit (0 = luciferase inhibitor, Ymax = DMSO control); for DC50: read-out: 293T-LentiX WEE1-ePL Degradation 4 hr (EC50)
T1 construct: C-terminal ePL-tagged (DiscoverX, Fremont, CA) full-length WEE1 expression construct; expressed in transfected cells; host or cells: LentiX-HEK293T (Invitrogen), lentiviral transduction; co-expressing GSPT1-GN (G576N, lacking the first 158 amino acids)
Summary of the method: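 HEK293T cells stably expressing C-terminal ePL-tagged full-length WEE1, 2500 cells/well, treated 4 h at 37° C with a 10-point 3-fold series from 1 or 10 uM. Remaining WEE1-ePL read by InCELL Hunter luminescence after 30 min. EC50 came from a four-parameter logistic fit, with Ymax set from DMSO control.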

MKN45 cells = assay: MKN45 cell proliferation assay (Cell-Titer-Glo, 120 h); assay type: cell-based; details: for EC50: Homo sapiens, MKN-45, 120 h, Cell-Titer-Glo, growth inhibition, read-out: MKN45 Cell Prolif. 120 hr (EC50); for MKN45 Cell Prolif. 120 hr (Ymin-Obs): minimal percent of DMSO control observed in the concentrations tested
Summary of the method: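 Cells seeded at 400/well onto pre-printed 10-point half-log dilutions (top 1 or 10 uM, 0.1% DMSO final), in triplicate, and grown 120 h at 37 C. Viability by Cell-Titer-Glo luminescence, blank-subtracted and normalised to DMSO; EC50 from four-parameter logistic fit, with observed minimal % of control recorded as Ymin-obs.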

Row | SMILES | 293T-LentiX WEE1-ePL Degradation 4 hr (Ymin) (WEE1) | DC50 (WEE1) | EC50 (MKN45 cells) | MKN45 Cell Prolif. 120 hr (Ymin-Obs) (MKN45 cells)
1 | O=C1CCC(N2Cc3cc(O[C@H]4CCN(Cc5ccc6nc(N7CCC(O)CC7)ccc6c5)C4)ccc3C2=O)C(=O)N1 (stereo partly drawn) [3-(5-{[(3S)-1-{[2-(4-hydroxypiperidin-1-yl)quinolin-6-yl]methyl}pyrrolidin-3-yl]oxy}-1-oxo-2,3-dihydro-1H-isoindol-2-yl)piperidine-2,6-dione] | 34.5 | 2.86 nM | 6.59 nM | 9.69
2 | COC1CCN(c2ccc3cc(CN4CC[C@H](Oc5ccc6c(c5)CN(C5CCC(=O)NC5=O)C6=O)C4)ccc3n2)CC1 (stereo partly drawn) [3-(5-{[(3S)-1-{[2-(4-methoxypiperidin-1-yl)quinolin-6-yl]methyl}pyrrolidin-3-yl]oxy}-1-oxo-2,3-dihydro-1H-isoindol-2-yl)piperidine-2,6-dione] | 30.5 | 2.49 nM | 3.75 nM | 9.39
3 | CC1(c2ccc3cc(CN4CC[C@H](Oc5ccc6c(c5)CN(C5CCC(=O)NC5=O)C6=O)C4)ccc3n2)CCOCC1 (stereo partly drawn) [3-(5-{[(3S)-1-{[2-(4-methyloxan-4-yl)quinolin-6-yl]methyl}pyrrolidin-3-yl]oxy}-1-oxo-2,3-dihydro-1H-isoindol-2-yl)piperidine-2,6-dione] | 32 | 1.99 nM | 4.03 nM | 10.29
4 | CN1CCN(c2ccc3cc(CN4CC[C@H](Oc5ccc6c(c5)CN(C5CCC(=O)NC5=O)C6=O)C4)ccc3n2)CC1 (stereo partly drawn) [3-(5-{[(3S)-1-{[2-(4-methylpiperazin-1-yl)quinolin-6-yl]methyl}pyrrolidin-3-yl]oxy}-1-oxo-2,3-dihydro-1H-isoindol-2-yl)piperidine-2,6-dione] | 33.5 | 6.77 nM | 20 nM | 13.365
5 | CNc1ncc2cc(CN3CC[C@H](Oc4ccc5c(c4)CN(C4CCC(=O)NC4=O)C5=O)C3)ccc2n1 (stereo partly drawn) [3-(5-{[(3S)-1-{[2-(methylamino)quinazolin-6-yl]methyl}pyrrolidin-3-yl]oxy}-1-oxo-2,3-dihydro-1H-isoindol-2-yl)piperidine-2,6-dione] | 41 | 44.8 nM | 234 nM | 22.48
6 | O=C1CCC(N2Cc3cc(O[C@H]4CCN(Cc5ccc6nc(N7CCOCC7)ncc6c5)C4)ccc3C2=O)C(=O)N1 (stereo partly drawn) [3-(5-{[(3S)-1-{[2-(morpholin-4-yl)quinazolin-6-yl]methyl}pyrrolidin-3-yl]oxy}-1-oxo-2,3-dihydro-1H-isoindol-2-yl)piperidine-2,6-dione] | 31.33 | 7.2 nM | 16.1 nM | 9.637
7 | O=C1CCC(N2Cc3cc(O[C@H]4CCN(Cc5ccc6nc(N7CCOCC7)ccc6c5)C4)ccc3C2=O)C(=O)N1 (stereo partly drawn) [3-(5-{[(3S)-1-{[2-(morpholin-4-yl)quinolin-6-yl]methyl}pyrrolidin-3-yl]oxy}-1-oxo-2,3-dihydro-1H-isoindol-2-yl)piperidine-2,6-dione] | 35 | 2.69 nM | 11.9 nM | 12.168
8 | O=C1CCC(N2Cc3cc(O[C@H]4CCN(Cc5ccc6nc(C7CCOCC7)ncc6c5)C4)ccc3C2=O)C(=O)N1 (stereo partly drawn) [3-(5-{[(3S)-1-{[2-(oxan-4-yl)quinazolin-6-yl]methyl}pyrrolidin-3-yl]oxy}-1-oxo-2,3-dihydro-1H-isoindol-2-yl)piperidine-2,6-dione] | 30.5 | 32.6 nM | 21.4 nM | 6.11

Now from value to compound, other results behind:

Row | 293T-LentiX WEE1-ePL Degradation 4 hr (Ymin) (WEE1) | DC50 (WEE1) | EC50 (MKN45 cells) | SMILES | MKN45 Cell Prolif. 120 hr (Ymin-Obs) (MKN45 cells)
9 | 37 | 3.01 nM | 6.71 nM | O=C1CCC(N2Cc3cc(O[C@H]4CCN(Cc5ccc6nc(N7CCC7)ccc6c5)C4)ccc3C2=O)C(=O)N1 (stereo partly drawn) [3-(5-{[(3S)-1-{[2-(azetidin-1-yl)quinolin-6-yl]methyl}pyrrolidin-3-yl]oxy}-1-oxo-2,3-dihydro-1H-isoindol-2-yl)piperidine-2,6-dione] | 10.91
10 | 29.42 | 2.96 nM | 7.17 nM | O=C1CCC(N2Cc3cc(O[C@H]4CCN(Cc5ccc6nc(C(F)F)ccc6c5)C4)ccc3C2=O)C(=O)N1 (stereo partly drawn) [3-(5-{[(3S)-1-{[2-(difluoromethyl)quinolin-6-yl]methyl}pyrrolidin-3-yl]oxy}-1-oxo-2,3-dihydro-1H-isoindol-2-yl)piperidine-2,6-dione] | 9.875
11 | 26.59 | 2.71 nM | 20 nM | CN(C)c1ccc2cc(CN3CC[C@H](Oc4ccc5c(c4)CN(C4CCC(=O)NC4=O)C5=O)C3)ccc2n1 (stereo partly drawn) [3-(5-{[(3S)-1-{[2-(dimethylamino)quinolin-6-yl]methyl}pyrrolidin-3-yl]oxy}-1-oxo-2,3-dihydro-1H-isoindol-2-yl)piperidine-2,6-dione] | 12.34
12 | 26.21 | 1.62 nM | 11.8 nM | O=C1CCC(N2Cc3cc(O[C@H]4CCN(Cc5ccc6nc(CF)ccc6c5)C4)ccc3C2=O)C(=O)N1 (stereo partly drawn) [3-(5-{[(3S)-1-{[2-(fluoromethyl)quinolin-6-yl]methyl}pyrrolidin-3-yl]oxy}-1-oxo-2,3-dihydro-1H-isoindol-2-yl)piperidine-2,6-dione] | 10.025
13 | 31.475 | 9.39 nM | 54.4 nM | O=C1CCC(N2Cc3cc(O[C@H]4CCN(Cc5ccc6nc(CO)ccc6c5)C4)ccc3C2=O)C(=O)N1 (stereo partly drawn) [3-(5-{[(3S)-1-{[2-(hydroxymethyl)quinolin-6-yl]methyl}pyrrolidin-3-yl]oxy}-1-oxo-2,3-dihydro-1H-isoindol-2-yl)piperidine-2,6-dione] | 11.84
14 | 32 | 47.5 nM | 78.5 nM | COCc1ncc2cc(CN3CC[C@H](Oc4ccc5c(c4)CN(C4CCC(=O)NC4=O)C5=O)C3)ccc2n1 (stereo partly drawn) [3-(5-{[(3S)-1-{[2-(methoxymethyl)quinazolin-6-yl]methyl}pyrrolidin-3-yl]oxy}-1-oxo-2,3-dihydro-1H-isoindol-2-yl)piperidine-2,6-dione] | 9.73
15 | 30.5 | 5.55 nM | 20.5 nM | COCc1ccc2cc(CN3CC[C@H](Oc4ccc5c(c4)CN(C4CCC(=O)NC4=O)C5=O)C3)ccc2n1 (stereo partly drawn) [3-(5-{[(3S)-1-{[2-(methoxymethyl)quinolin-6-yl]methyl}pyrrolidin-3-yl]oxy}-1-oxo-2,3-dihydro-1H-isoindol-2-yl)piperidine-2,6-dione] | 8.38
16 | 31.06 | 7.21 nM | 21.8 nM | CNc1ccc2cc(CN3CC[C@H](Oc4ccc5c(c4)CN(C4CCC(=O)NC4=O)C5=O)C3)ccc2n1 (stereo partly drawn) [3-(5-{[(3S)-1-{[2-(methylamino)quinolin-6-yl]methyl}pyrrolidin-3-yl]oxy}-1-oxo-2,3-dihydro-1H-isoindol-2-yl)piperidine-2,6-dione] | 9.31
